From patent US8178506B2, “Oligomeric compounds and compositions for use in modulation of small non-coding RNAs” (Regulus Therapeutics Inc., priority 2003, dated 2012)

Test system: preadipocytes / differentiating adipocytes
Assay: Adipocyte differentiation assay, markers taken together
Type: cell-based, human
Conditions: for expression of the adipocyte differentiation markers, compounds targeting mir-143 miRNA or pri-miRNA compared: preadipocytes (Table 20)

| Sequence | expression of the adipocyte differentiation markers, compounds targeting mir-143 miRNA or pri-miRNA compared (listed as ISIS 340972) | expression of all five markers of differentiation, dose response (differentiating adipocytes, 50, 100, 200 and 300 nM, 24 hours) | expression of the adipocyte differentiation markers, compounds targeting mir-143 miRNA or pri-miRNA compared | expression levels of markers of adipocyte differentiation (TG, leptin, aP2, HSL, Glut4, PPARγ) (preadipocytes, 250 nM, day nine post-transfection, relative to ISIS-29848) |
| --- | --- | --- | --- | --- |
| TGAGCTACAGTGCTTCATCTCA [ISIS 340927] (chemistry not given here) [5-10-7 2′-MOE gapmer PS; targets mature mir-143] | reduced expression of the adipocyte differentiation markers |  |  |  |
| TGAGCTACAGTGCTTCATCTCA [ISIS 327901] (chemistry not given here) [uniform 2′-MOE PS; targets mir-143] |  | dose responsive reduction of expression of all five markers of differentiation | more effective | significantly reduce the expression levels of 5 of 6 markers of adipocyte differentiation |
